In patent US12599583B2, “Small molecule GRB2 stabilizers for Ras map kinase inhibition” (Board of Regents, The University of Texas System, priority 2019, dated 2026):

Target: T1, GRB2 (Homo sapiens, UniProt P62993)
Assay: fluorescence anisotropy assay measuring GRB2 dimerization
Assay type: biochemical
Conditions: 100 nM Atto488 labeled GRB2; NB = No Binding (inability to induce GRB2 dimerization); read-out: EC50 anisotropy, compound induced GRB2 dimerization
Protocol: FIGS. 16A & 16B show fluorescence anisotropy assay data measuring GRB2 dimerization. 100 nM Atto488 labeled GRB2, which is below its dimer forming concentration, was used to identify compounds that induce dimerization. […] Note that NB represent compounds inability to induce GRB2 dimerization.
GRB2 dimerization was measured by fluorescence anisotropy assay. 100 nM Atto488 labeled GRB2, which is below its dimer forming concentration, was used to identify compounds that induce dimerization. […] Note that NB represent compounds inability to induce GRB2 dimerization.

Structure (SMILES)	EC50 [µM]
O=C1Cc2cc(NC(=O)Nc3ccc(F)cc3)ccc2N1 [GRB001]	49.7
O=C1Cc2cc(NC(=O)Nc3cccs3)ccc2N1 [GRB003]	9.7
O=C1Cc2cc(NC(=O)Nc3cccc(Cl)c3)ccc2N1 [GRB004]	26
CN1C(=O)Cc2cc(NC(=O)Nc3ccc(F)cc3)ccc21 [GRB006]	2.7
COc1cccc(NC(=O)Nc2ccc3c(c2)CC(=O)N3C)c1 [GRB007]	15.7
CCN1C(=O)Cc2cc(NC(=O)Nc3ccc(Cl)c(Cl)c3)ccc21 [GRB009]	5.5
CCN1C(=O)Cc2cc(NC(=O)Nc3ccc(Cl)cc3)ccc21 [GRB010]	3.9
COc1ccccc1NC(=O)Nc1ccc2c(c1)CC(=O)N2 [GRB012]	4.5
Cc1cc(Br)ccc1NC(=O)Nc1ccc2[nH]c(=O)[nH]c2c1 [GRB020]	0.75
Cc1ccc(NC(=O)Nc2ccc3[nH]c(=O)[nH]c3c2)cc1 [GRB021]	1
O=C(Nc1ccc(Cl)c(Cl)c1)Nc1ccc2[nH]c(=O)[nH]c2c1 [GRB022]	2.1
O=C(Nc1cccc(F)c1)Nc1ccc2[nH]c(=O)[nH]c2c1 [GRB023]	3.1
O=C(Nc1cc(F)cc(F)c1)Nc1ccc2[nH]c(=O)[nH]c2c1 [GRB024]	4.6
N#Cc1cccc(NC(=O)Nc2ccc3[nH]c(=O)[nH]c3c2)c1 [GRB025]	6
Cc1ccc(NC(=O)Nc2ccc3[nH]c(=O)[nH]c3c2)c(C)c1 [GRB026]	8.2
CCOC(=O)CNC(=O)Nc1ccc2[nH]c(=O)[nH]c2c1 [GRB027]	10.1
O=C(Nc1cc(Cl)cc(Cl)c1)Nc1ccc2[nH]c(=O)[nH]c2c1 [GRB028]	10.2
Cc1ccc(NC(=O)Nc2ccc3[nH]c(=O)[nH]c3c2)c(C)c1 [GRB029]	16.3
Cc1cccc(NC(=O)Nc2ccc3[nH]c(=O)[nH]c3c2)c1C [GRB030]	37.3
O=C(Nc1ccc(F)c(Cl)c1)Nc1ccc2[nH]c(=O)[nH]c2c1 [GRB031]	40.3
COc1cc(NC(=O)Nc2ccc3[nH]c(=O)[nH]c3c2)cc(OC)c1OC [GRB032]	> 100
COC(=O)c1cccc(NC(=O)Nc2ccc3[nH]c(=O)[nH]c3c2)c1 [GRB033]	> 100
COc1cccc(NC(=O)Nc2ccc3[nH]c(=O)[nH]c3c2)c1 [GRB034]	264
O=C(Nc1cccc(C(F)(F)F)c1)Nc1ccc2[nH]c(=O)[nH]c2c1 [GRB046]	2

Other lines, results leading:

EC50 [µM]	Structure (SMILES)
9.7	O=C(Nc1ccc(F)cc1)Nc1ccc2[nH]c(=O)[nH]c2c1 [GRB047]
8.3	O=c1[nH]c2ccc(NC(=S)Nc3ccc(Cl)c(Cl)c3)cc2[nH]1 [GRB048]
11.5	O=C(NCc1ccccc1)Nc1ccc2[nH]c(=O)[nH]c2c1 [GRB049]
56	O=c1[nH]c2ccc(NC(=S)NCCN3CCOCC3)cc2[nH]1 [GRB050]
> 100	COc1ccccc1NC(=O)Nc1ccc2[nH]c(=O)[nH]c2c1 [GRB051]
2	Cc1ccccc1NC(=O)Nc1ccc2[nH]c(S)nc2c1 [GRB058]
2.4	O=C(Nc1cc(F)cc(F)c1)Nc1ccc2[nH]c(S)nc2c1 [GRB060]
129	COc1cccc(NC(=O)Nc2ccc3[nH]c(S)nc3c2)c1 [GRB061]
78	Cc1cc(C)cc(NC(=O)Nc2ccc3[nH]c(S)nc3c2)c1 [GRB062]
124	N#Cc1ccc(NC(=O)Nc2ccc3[nH]c(S)nc3c2)cc1 [GRB063]
116	O=C(Nc1ccccc1)Nc1ccc2[nH]c(S)nc2c1 [GRB064]
350	O=C(Nc1ccccc1)Nc1ccc2[nH]c(SCc3ccc(F)cc3)nc2c1 [GRB065]
246	O=C(NCc1ccc(F)cc1)Nc1ccc2[nH]c(SCc3ccc(F)cc3)nc2c1 [GRB066]
48	Cc1cc(C)cc(NC(=O)Nc2ccc3[nH]c(SCc4ccc(F)cc4)nc3c2)c1 [GRB067]
128	O=C(Nc1ccc2ccccc2c1)Nc1ccc2[nH]c(SCc3ccc(F)cc3)nc2c1 [GRB070]
225	O=C(Nc1cc(F)cc(F)c1)Nc1ccc2[nH]c(SCc3ccc(F)cc3)nc2c1 [GRB071]
15	CC(=O)c1cccc(NC(=O)Nc2ccc3[nH]c(SCc4ccc(F)cc4)nc3c2)c1 [GRB073]
205	O=C(Cc1ccc(F)cc1)Nc1ccc2[nH]c(S)nc2c1 [GRB074]
23	O=C(Nc1cccc(F)c1)Nc1ccc2[nH]c(SCc3ccc(F)cc3)nc2c1 [GRB075]

EC50 [µM]	Structure (SMILES)
62	COC(=O)c1cccc(NC(=O)c2ccc3[nH]c(S)nc3c2)c1 [GRB076]
502	CSc1nc2cc(C(=O)Nc3cccc(F)c3)ccc2[nH]1 [GRB077]
436	Cc1ccc(S(=O)(=O)Nc2ccc3[nH]c(S)nc3c2)cc1 [GRB078]
1.1	O=C1Cc2cc(NC(=O)Nc3cc(F)cc(F)c3)ccc2N1 [GRB085]
1.5	O=C1Cc2cc(NC(=S)Nc3ccc(Cl)c(Cl)c3)ccc2N1 [GRB086]
4.6	O=C1Cc2cc(NC(=O)Nc3cccc(Br)c3)ccc2N1 [GRB087]
8.3	O=C1Cc2cc(NC(=O)Nc3ccc(F)c(Cl)c3)ccc2N1 [GRB088]
9.1	Cc1cccc(NC(=O)Nc2ccc3c(c2)CC(=O)N3)c1C [GRB089]
13	Cc1cc(NC(=O)Nc2ccc3c(c2)CC(=O)N3)ccc1Cl [GRB090]
13.3	O=C1Cc2cc(NC(=O)NC(=O)c3ccccc3)ccc2N1 [GRB091]
13.8	O=C1Cc2cc(NC(=O)Nc3cc(Cl)cc(Cl)c3)ccc2N1 [GRB092]
15.5	Cc1ccc(NC(=O)Nc2ccc3c(c2)CC(=O)N3)c(C)c1 [GRB093]
23	COC(=O)c1cccc(NC(=O)Nc2ccc3c(c2)CC(=O)N3)c1 [GRB094]
50.9	O=C1Cc2cc(NC(=S)Nc3cccc(Cl)c3)ccc2N1 [GRB095]
13	O=C(Nc1cc(Cl)cc(Cl)c1)Nc1ccc2[nH]c(=O)oc2c1 [GRB101]
> 100	O=C(Nc1cc(F)cc(F)c1)Nc1ccc2[nH]c(=O)oc2c1 [GRB102]
3.1	Cc1ccc(NC(=O)Nc2ccc3[nH]c(=O)oc3c2)cc1 [GRB104]
9.7	COc1cccc(NC(=O)Nc2ccc3[nH]c(=O)oc3c2)c1 [GRB105]

Target: T1, GRB2
Assay: GRB001 binding to GRB2 by MST
Conditions: read-out: Kd, in vitro binding to GRB2 by MST
Protocol: In vitro binding of GRB001 to GRB2 with 50 μM Kd.

Structure (SMILES)	Kd [µM]
O=C1Cc2cc(NC(=O)Nc3ccc(F)cc3)ccc2N1 [GRB001]	50

Target: T1, GRB2
Assay: ITC binding to GRB2
Conditions: read-out: Kd, ITC binding isotherm
Text: Validation of in vitro binding of GRB001 to GRB2 with ITC as an alternative technique. […] GRB001 is able to bind GRB2 in two different conformations as reflected by the energy signature (inset).
FIGS. 14A-14C show ITC binding isotherm of GRB001 binding to GRB2 as in FIG. 4 (FIG. 14A).

Kd [µM]	Structure (SMILES)
0.527 ± 0.367	O=C1Cc2cc(NC(=O)Nc3cc(Cl)cc(Cl)c3)ccc2N1 [GRB092]

Same assay, conditions: read-out: Kd, binding to GRB2 by ITC

Structure (SMILES)	Kd [µM]
O=C1Cc2cc(NC(=O)Nc3ccc(F)cc3)ccc2N1 [GRB001]	37

Target: GRB2 dimer interface (Homo sapiens, UniProt P62993)
Assay: GRB2 monomer dimer equilibrium measurement
Assay type: biochemical
Conditions: presence of 100 μM GRB001
Protocol: Measurements of GRB2 monomer dimer equilibrium in the absence (lower, darker line) or presence of 100 μM GRB001 (upper, lighter line).

Structure (SMILES)	effect on GRB2 monomer dimer equilibrium
O=C1Cc2cc(NC(=O)Nc3ccc(F)cc3)ccc2N1 [GRB001]	induce a Kd shift favoring dimerization

Test system: RTK induced Ras signaling
Assay: EGF and FGF induced MAPK activation in multiple cancer cell-lines
Assay type: cell-based
Conditions: not given
Text: GRB001 inhibits RAS/ERK activation while EGFR is fully active (FIG. 6D, top panel and the corresponding active EGFR in bottom panel)

Structure (SMILES)	inhibition of EGF and FGF induced MAPK activation
O=C1Cc2cc(NC(=O)Nc3ccc(F)cc3)ccc2N1 [GRB001]	inhibits EGF and FGF induced MAPK activation

Test system: MDA-MB-231 triple negative breast cancer cells with G13D k-Ras mutation
Assay: EGF induced MAPK activation in MDA-MB-231 cells
Assay type: cell-based
Conditions: not given

Structure (SMILES)	inhibition of EGF induced MAPK activation
O=C1Cc2cc(NC(=O)Nc3ccc(F)cc3)ccc2N1 [GRB001]	inhibits RTK induced Ras signaling

Test system: A549 (lung adenocarcinoma) cells with G12S KRAS mutation
Assay: EGF induced MAPK activation in A549 cells
Assay type: cell-based
Conditions: not given

Structure (SMILES)	inhibition of EGF induced MAPK activation
O=C1Cc2cc(NC(=O)Nc3ccc(F)cc3)ccc2N1 [GRB001]	inhibits RTK induced Ras signaling

Test system: MDA-MB-231 TNBC
Assay: apoptosis in MDA-MB-231 tumor cells
Assay type: cell-based
Conditions: not given
Text: GRB001 specifically kills triple negative breast cancer cells through caspase 3/7 mediated apoptosis (FIG. 8B).

Structure (SMILES)	induction of apoptosis
O=C1Cc2cc(NC(=O)Nc3ccc(F)cc3)ccc2N1 [GRB001]	induces apoptosis

Test system: A549 lung cancer cells
Assay: apoptosis in A549 tumor cells
Assay type: cell-based
Conditions: not given

Structure (SMILES)	induction of apoptosis
O=C1Cc2cc(NC(=O)Nc3ccc(F)cc3)ccc2N1 [GRB001]	induces apoptosis

Test system: OVCAR5 cells
Assay: nuclear fragmentation of OVCAR5 cells, high-throughput assay
Assay type: cell-based
Conditions: 500 nM compound
Text: The intensity of the red color represents nuclear condensation indicative of apoptotic cells.

Structure (SMILES)	nuclear fragmentation of OVCAR5 cells
O=C1Cc2cc(NC(=O)Nc3ccc(Cl)c(Cl)c3)ccc2N1 [GRB002]	inducing nuclear fragmentation

Same assay, conditions: OVCAR5 cells

Structure (SMILES)	quantitation of fragmented nucleus among Series-1 GRB001 analogues
O=C1Cc2cc(NC(=O)Nc3ccc(Cl)c(Cl)c3)ccc2N1 [GRB002]	highest level of fragmented nucleus
O=C1Cc2cc(NC(=O)Nc3ccc4c(c3)OCO4)ccc2N1 [GRB005]	highest level of fragmented nucleus

Test system: OVCAR5
Assay: EGF induced ERK activation in OVCAR5 cells
Assay type: cell-based
Conditions: not given

Structure (SMILES)	inhibition of EGF induced ERK activation
O=C1Cc2cc(NC(=O)Nc3ccc(F)cc3)ccc2N1 [GRB001]	inhibition of EGF induced ERK activation

Test system: OVCAR8 cells
Assay: EGF induced ERK activation in OVCAR8 cells
Assay type: cell-based
Conditions: not given

Structure (SMILES)	inhibition of EGF induced ERK activation
O=C1Cc2cc(NC(=O)Nc3ccc(F)cc3)ccc2N1 [GRB001]	inhibition of EGF induced ERK activation

Test system: not listed separately
Assay: Sulforhodamine B (SRB) cytotoxicity in HEK293T cells
Assay type: cell-based
Conditions: human
Protocol: (§1) Titrating concentrations of each compounds were used to treat cells for 72 hours. The data was normalized against 100% survival at the lowest inhibitor concentration. Graphs for IC50 were fitted to the four-parameter logistic equation using Prism8. Error bars show the percent coefficient of variation. Equivalent concentrations of DMSO were used as a negative control.
(§2) SRB cytotoxicity analysis was also performed using GRB152 in HEK293T and MDA-MB-231 cells. Cells were exposed to various concentrations of compound for 72 h before viability measurements.

Structure (SMILES)	IC50 at 72 h [µM]
O=c1[nH]c2ccc(NC(=S)Nc3ccc(Cl)c(Cl)c3)cc2o1 [GRB152]	1.5 ± 0.5
COc1ccc(Cl)cc1NC(=O)Nc1ccc2[nH]c(=O)oc2c1 [GRB161]	> 120

Test system: not listed separately
Assay: Sulforhodamine B (SRB) cytotoxicity in MDA-MB-231 cells
Assay type: cell-based
Conditions: human
Protocol: as §1, §2

Structure (SMILES)	IC50 at 72 h [µM]
O=c1[nH]c2ccc(NC(=S)Nc3ccc(Cl)c(Cl)c3)cc2o1 [GRB152]	12.1 ± 1.5
